Values after ≈ are worked out from the molar mass of the structure shown.
Test system: A549
Assay: Cytotoxicity against human A549 cells after 48 hrs by MTT assay
Assay type: functional, cell-based
Settings: A549, 48 h

SMILES: CC(C)=CCC[C@](C)(O)[C@H]1CC[C@]2(C)[C@@H]1[C@H](O)C[C@@H]1[C@@]3(C)CC[C@H](O[C@@H]4O[C@H](CO)[C@@H](O)[C@H](O)[C@H]4O[C@@H]4O[C@H](CO)[C@@H](O)[C@H](O)[C@H]4O)C(C)(C)[C@@H]3CC[C@]12C
- IC50: 55.4 mg/L (≈ 70.5 µM)

SMILES: CC(C)=CCC[C@](C)(O)[C@H]1CC[C@]2(C)[C@@H]1[C@H](O)C[C@@H]1[C@@]3(C)C[C@@H](O)[C@H](O)C(C)(C)[C@@H]3CC[C@]12C
- IC50: 12.5 mg/L (≈ 26.3 µM)

SMILES: CC(C)=CCC[C@](C)(O)[C@H]1CC[C@]2(C)[C@@H]1[C@H](O)C[C@@H]1[C@@]3(C)C[C@@H](O)[C@H](O[C@@H]4O[C@H](CO)[C@@H](O)[C@H](O)[C@H]4O[C@@H]4O[C@H](CO)[C@@H](O)[C@H](O)[C@H]4O)C(C)(C)[C@@H]3CC[C@]12C
- IC50: 34.9 mg/L (≈ 43.6 µM)

SMILES: CC(C)=CCC[C@@](C)(O)[C@H]1CC[C@]2(C)[C@@H]1[C@H](O)C[C@@H]1[C@@]3(C)C[C@@H](O)[C@H](O[C@@H]4O[C@H](CO)[C@@H](O)[C@H](O)[C@H]4O[C@@H]4O[C@H](CO)[C@@H](O)[C@H](O)[C@H]4O)C(C)(C)[C@@H]3CC[C@]12C
- IC50: 51 mg/L (≈ 63.6 µM)

SMILES: CC(C)=CCC[C@](C)(O[C@@H]1O[C@H](CO)[C@@H](O)[C@H](O)[C@H]1O)[C@H]1CC[C@]2(C)[C@@H]1[C@H](O)C[C@@H]1[C@@]3(C)C[C@@H](O)[C@H](O[C@@H]4O[C@H](CO)[C@@H](O)[C@H](O)[C@H]4O[C@@H]4O[C@H](CO)[C@@H](O)[C@H](O)[C@H]4O)C(C)(C)[C@@H]3CC[C@]12C
- IC50: 52.6 mg/L (≈ 54.6 µM)

SMILES: CC(C)=CCC[C@](C)(O[C@@H]1O[C@H](CO[C@@H]2OC[C@@H](O)[C@H](O)[C@H]2O)[C@@H](O)[C@H](O)[C@H]1O)[C@H]1CC[C@]2(C)[C@@H]1[C@H](O)C[C@@H]1[C@@]3(C)C[C@@H](O)[C@H](O[C@@H]4O[C@H](CO)[C@@H](O)[C@H](O)[C@H]4O[C@@H]4O[C@H](CO)[C@@H](O)[C@H](O)[C@H]4O)C(C)(C)[C@@H]3CC[C@]12C
- IC50: 106 mg/L (≈ 96.7 µM)

Reference: ChEMBL document CHEMBL3098090, “Cytotoxic activity of gypenosides and gynogenin against non-small cell lung carcinoma A549 cells” (Bioorg Med Chem Lett, 2014)
